Experiment [1] deals with TEAD2 YAP50-100 (Homo sapiens, UniProt Q15562). The experiment in a line: TEAD2:YAP50-100 protein-protein interaction HTRF (TR-FRET) assay. The note with it: His-tagged TEAD YAP binding domain (aa 217-447), biotinylated YAP peptide aa 50-100; 30 min pre-incubation, 60 min at room temperature; read-out: TEAD2 YAP50-100 HTRF WuXi EC50. The method, then:
(§1) Purified His-tagged TEAD protein (YAP Binding Domain, amino acids 217-447) is pre-incubated with Europium labelled anti-His antibody tracer (Perkin Elmer Cat #AD0110). Small molecule Inhibitors are then incubated with the TEAD-Eu protein complex for 30 minutes to allow for binding to TEAD protein. Biotinylated YAP peptide (AA's 50-100) that has been pre-incubated with streptavidin x1665 acceptor (CIS-Bio Cat #610SAXAC) is added to the compound-TEAD mix. The TEAD-YAP-inhibitor mixture is then incubated for 60 minutes at room temperature. All reactions are carried out in a polystyrene plate. After 60 minutes, the plate is read on a plate reader using TR-FRET mode with wavelengths of 665 nm/615 nm. If YAP binds to TEAD as expected, a TR-FRET signal results from the proximity of YAP and TEAD after binding. If an inhibitor such as peptide 17 (Selleckchem Cat #S8164) interferes with YAP-TEAD binding, the disruption of the YAP:TEAD interaction results in a decrease in TR-FRET signal. The potency of compounds as YAP:TEAD protein-protein interaction (PPi) inhibitors is determined by an IC50 or EC50 value generated using a non-linear four parameter curve fit.

Experiment [2] deals with TEAD3 YAP50-100 (Homo sapiens, UniProt Q99594). The experiment in a line: TEAD3:YAP50-100 protein-protein interaction HTRF (TR-FRET) assay. The conditions noted are these: His-tagged TEAD YAP binding domain (aa 217-447), biotinylated YAP peptide aa 50-100; 30 min pre-incubation, 60 min at room temperature; read-out: TEAD3 YAP50-100 HTRF WuXi EC50. The method, then: as §1
(TR-FRET usually uses a lanthanide donor and a delayed reading to cut background.)

30 compounds from patent US20210238184A1, “THERAPEUTIC COMPOUNDS” (Genentech, Inc., priority 2018, published 2021) can be followed below.

The structures appear in SMILES notation.

TEAD2 YAP50-100, sequence (Q15562 217-447): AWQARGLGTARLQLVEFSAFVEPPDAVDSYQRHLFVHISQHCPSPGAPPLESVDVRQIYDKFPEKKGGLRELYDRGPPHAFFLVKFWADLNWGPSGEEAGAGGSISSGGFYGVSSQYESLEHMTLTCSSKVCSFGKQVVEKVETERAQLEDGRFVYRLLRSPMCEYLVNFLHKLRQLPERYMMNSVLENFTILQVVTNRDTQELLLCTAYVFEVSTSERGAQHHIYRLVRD
TEAD3 YAP50-100, sequence (Q99594 216-435 limits assumed): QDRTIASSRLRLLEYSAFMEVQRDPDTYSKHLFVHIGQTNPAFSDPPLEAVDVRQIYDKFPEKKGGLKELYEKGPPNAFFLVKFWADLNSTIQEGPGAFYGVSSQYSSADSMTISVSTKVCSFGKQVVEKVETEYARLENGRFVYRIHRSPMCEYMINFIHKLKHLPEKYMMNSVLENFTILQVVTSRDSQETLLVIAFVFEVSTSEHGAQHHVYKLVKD

`CCOC(=O)c1cnn2c(=O)cc(-c3ccc(C4CCCC4(C)C)cc3)[nH]c12` (single isomer, unassigned) [Example 19]: the results for the EC50 in experiment [1] and in experiment [2] were 270 nM and 37 nM, respectively.
As for `CCOC(=O)c1cnn2c(=O)cc(-c3ccc(C4CCCC4(C)C)cc3)[nH]c12` (single isomer, unassigned) [Example 20], the EC50 in experiment [1] worked out at 187 nM; in experiment [2], 60 nM.
For `CN(C)C(=O)c1cnn2c(=O)cc(-c3ccc(C4CCCC4(C)C)cc3)[nH]c12` (single isomer, unassigned) [Example 21], in that order: 220 nM and 21 nM.
With `CN(C)C(=O)c1cnn2c(=O)cc(-c3ccc(C4CCCC4(C)C)cc3)[nH]c12` (single isomer, unassigned) [Example 22], the figures for the EC50 in experiment [1] and in experiment [2] were 378 nM and 42 nM, respectively.
As to `C[C@H]1[C@@H](CF)CN1C(=O)c1cnn2c(=O)cc(-c3ccc(C4CCCCC4)cc3)[nH]c12` (single isomer, unassigned) [Example 45], the values for the EC50 in experiment [1] and in experiment [2] were 8 nM and 43 nM, respectively.
For `C[C@@H]1[C@H](CF)CN1C(=O)c1cnn2c(=O)cc(-c3ccc(C4CCCCC4)cc3)[nH]c12` (single isomer, unassigned) [Example 46], in that order: 755 nM and 3100 nM.
For `CCOC(=O)c1cnn2c(=O)cc(-c3ccc(C4CCC(F)(F)CC4)cc3)[nH]c12` [Example 1, Ethyl 5-(4-(4,4-difluorocyclohexyl)phenyl)-7-oxo-4,7-dihydropyrazolo[1,5-a]pyrimidine-3-carboxylate], in that order: 263 nM and 41 nM.
In the case of `CCOC(=O)c1cnn2c(=O)cc(-c3ccc(C4CCCC4)cc3)[nH]c12` [Example 2, Ethyl 5-(4-cyclopentylphenyl)-7-oxo-4,7-dihydropyrazolo[1,5-a]pyrimidine-3-carboxylate], the EC50 in experiment [1] worked out at 120 nM; in experiment [2], 19 nM.
For `CN(C)C(=O)c1cnn2c(=O)cc(-c3ccc(C4CCCC4)cc3)[nH]c12` [Example 3, 5-(4-Cyclopentylphenyl)-N,N-dimethyl-7-oxo-4,7-dihydropyrazolo[1,5-a]pyrimidine-3-carboxamide], in that order: 342 nM and 16 nM.
For `CCOC(=O)c1cnn2c(=O)cc(-c3ccc(C4CCCCC4)cc3)[nH]c12` [Example 4, Ethyl 5-(4-cyclohexylphenyl)-7-oxo-4,7-dihydropyrazolo[1,5-a]pyrimidine-3-carboxylate], in that order: 66 nM and 19 nM.
For `CN(CCO)C(=O)c1cnn2c(=O)cc(-c3ccc(C4CCCCC4)cc3)[nH]c12` [Example 5, 5-(4-cyclohexylphenyl)-N-(2-hydroxyethyl)-N-methyl-7-oxo-4,7-dihydropyrazolo[1,5-a]pyrimidine-3-carboxamide], in that order: 1100 nM and 567 nM.
As for `CCN(C)C(=O)c1cnn2c(=O)cc(-c3ccc(C4CCCCC4)cc3)[nH]c12` [Example 6, 5-(4-Cyclohexylphenyl)-N-ethyl-N-methyl-7-oxo-4,7-dihydropyrazolo[1,5-a]pyrimidine-3-carboxamide], the EC50 in experiment [1] was 67 nM; in experiment [2], 18 nM.
For `CN(C)C(=O)c1cnn2c(=O)cc(-c3ccc(C4CCCCC4)cc3)[nH]c12` [Example 7, 5-(4-Cyclohexylphenyl)-N,N-dimethyl-7-oxo-4,7-dihydropyrazolo[1,5-a]pyrimidine-3-carboxamide], in that order: 87 nM and 18 nM.
For `O=C(c1cnn2c(=O)cc(-c3ccc(C4CCCCC4)cc3)[nH]c12)N1CCC1` [Example 8, 3-(Azetidine-1-carbonyl)-5-(4-cyclohexylphenyl)pyrazolo[1,5-a]pyrimidin-7(4H)-one], in that order: 38 nM and 23 nM.
For `CC1(O)CN(C(=O)c2cnn3c(=O)cc(-c4ccc(C5CCCCC5)cc4)[nH]c23)C1` [Example 9, 5-(4-Cyclohexylphenyl)-3-(3-hydroxy-3-methylazetidine-1-carbonyl)pyrazolo[1,5-a]pyrimidin-7(4H)-one], in that order: 333 nM and 1300 nM.
In the case of `O=C(c1cnn2c(=O)cc(-c3ccc(C4CCCCC4)cc3)[nH]c12)N1CC(O)C1` [Example 10, 5-(4-Cyclohexylphenyl)-3-(3-hydroxyazetidine-1-carbonyl)pyrazolo[1,5-a]pyrimidin-7(4H)-one], the EC50 was 548 nM in experiment [1] and 72 nM in experiment [2].
For `CC1CN(C(=O)c2cnn3c(=O)cc(-c4ccc(C5CCCCC5)cc4)[nH]c23)C1` [Example 11, 5-(4-Cyclohexylphenyl)-3-(3-methylazetidine-1-carbonyl)pyrazolo[1,5-a]pyrimidin-7(4H)-one], the EC50 in experiment [1] stood at 11 nM; in experiment [2] it was 32 nM.
For `O=C(c1cnn2c(=O)cc(-c3ccc(C4CCCCC4)cc3)[nH]c12)N1CC(F)(F)C1` [Example 12, 5-(4-Cyclohexylphenyl)-3-(3,3-difluoroazetidine-1-carbonyl)pyrazolo[1,5-a]pyrimidin-7(4H)-one], in that order: 68 nM and 56 nM.
Take `CCOC(=O)c1cnn2c(=O)cc(-c3ccc(OC4CCCCC4)cc3)[nH]c12` [Example 13, Ethyl 5-(4-(Cyclohexyloxy)phenyl)-7-oxo-4,7-dihydropyrazolo[1,5-a]pyrimidine-3-carboxylate]: the EC50 was found to be 793 nM in experiment [1] and 66 nM in experiment [2].
For `CCOC(=O)c1cnn2c(=O)cc(-c3ccc(Oc4ccccc4)c(C)c3)[nH]c12` [Example 14, Ethyl 5-(3-methyl-4-phenoxyphenyl)-7-oxo-4,7-dihydropyrazolo[1,5-a]pyrimidine-3-carboxylate], in that order: 747 nM and 666 nM.
For `CCOC(=O)c1cnn2c(=O)cc(-c3ccc(Oc4ccccc4)cc3)[nH]c12` [Example 15, Ethyl 7-oxo-5-(4-phenoxyphenyl)-4,7-dihydropyrazolo[1,5-a]pyrimidine-3-carboxylate], in that order: 836 nM and 532 nM.
For `CN(C)C(=O)c1cnn2c(=O)cc(-c3ccc(Oc4ccccc4)cc3)[nH]c12` [Example 16, /VA-Dimethyl-7-oxo-5-(4-phenoxyphenyl)-4,7-dihydropyrazolo[1,5-a]pyrimidine-3-carboxamide], in that order: 501 nM and 1110 nM.
In the case of `CCNC(=O)c1cnn2c(=O)cc(-c3ccc(Oc4ccccc4)cc3)[nH]c12` [Example 17, N-Ethyl-7-oxo-5-(4-phenoxyphenyl)-4,7-dihydropyrazolo[1,5-a]pyrimidine-3-carboxamide], the results for the EC50 in experiment [1] and in experiment [2] were 55 nM and 5000 nM, respectively.
For `CCOC(=O)c1cnn2c(=O)cc(-c3ccc(N4CCCCC4)cc3)[nH]c12` [Example 18, Ethyl 7-oxo-5-(4-(piperidin-1-yl)phenyl)-4,7-dihydropyrazolo[1,5-a]pyrimidine-3-carboxylate], in that order: 7350 nM and 239 nM.
Take `CCOC(=O)c1cnn2c(=O)cc(-c3ccc(C(F)(F)F)cc3)[nH]c12` [Example 23, Ethyl 7-oxo-5-(4-(trifluoromethyl)phenyl)-4,7-dihydropyrazolo[1,5-a]pyrimidine-3-carboxylate]: the figures for the EC50 in experiment [1] and in experiment [2] were 1780 nM and 834 nM, respectively.
For the compound `CCNC(=O)c1cnn2c(=O)cc(-c3ccc(C(F)(F)F)cc3)[nH]c12` [Example 24, N-Ethyl-7-oxo-5-(4-(trifluoromethyl)phenyl)-4,7-dihydropyrazolo[1,5-a]pyrimidine-3-carboxamide], the EC50 is 80 nM in experiment [1] and 4380 nM in experiment [2].
For `CNC(=O)c1cnn2c(=O)cc(-c3ccc(C(F)(F)F)cc3)[nH]c12` [Example 25, N-methyl-7-oxo-5-(4-(trifluoromethyl)phenyl)-4,7-dihydropyrazolo[1,5-a]pyrimidine-3-carboxamide], in that order: 212 nM and 10400 nM.
On to `CCOC(=O)c1cnn2c(=O)cc(-c3ccc(C(F)(F)F)c(C)c3)[nH]c12` [Example 26, Ethyl 5-(3-methyl-4-(trifluoromethyl)phenyl)-7-oxo-4,7-dihydropyrazolo[1,5-a]pyrimidine-3-carboxylate], for which the EC50 turned out to be 956 nM in experiment [1] and 1410 nM in experiment [2].
For `O=C(NC1CC1)c1cnn2c(=O)cc(-c3ccc(C(F)(F)F)cc3)[nH]c12` [Example 27, N-Cyclopropyl-7-oxo-5-(4-(trifluoromethyl)phenyl)-4,7-dihydropyrazolo[1,5-a]pyrimidine-3-carboxamide], in that order: 211 nM and 3510 nM.
For `CCOC(=O)c1c(C)nn2c(=O)cc(-c3ccc(Oc4ccccc4)cc3)[nH]c12` [Example 28, Ethyl 2-methyl-7-oxo-5-(4-phenoxyphenyl)-4,7-dihydropyrazolo[1,5-a]pyrimidine-3-carboxylate], in that order: 3570 nM and 393 nM.

By EC50 is commonly meant the concentration giving half of the maximal effect.
